Source: ChEMBL document CHEMBL1201862, “PubChem BioAssay data set” (2004)
Values joined by “and” are separate entries in the source; they are usually repeats but may differ in a detail not shown here. Equal values may be shown once.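 Tested at 5 concentrations; 48 h exposure; 96-well plates; endpoints linearly interpolated, else capped at highest concentration. GI50 = concentration required for 50% inhibition of growth.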 Active and inactive are the calls of the source. No stated cut-off is given here; in the data, active = GI50 up to about 1.1 µM and inactive = higher.

What was measured:
Assay in all cases: NCI tumour cell line growth inhibition, 48 h
[1] = system: M14
[2] = system: NCI-H522
[3] = system: SR
[4] = system: NCI-H460
[5] = system: EKVX
[6] = system: SK-MEL-5
[7] = system: OVCAR-5
[8] = system: SNB-75
[9] = system: SF-268
[10] = system: HCT-116
[11] = system: HOP-92
[12] = system: SN12C
[13] = system: RXF 393
[14] = system: SF-539
[15] = system: SK-OV-3
[16] = system: U-251

Measured: GI50

COC(=O)C(C(=O)C(=O)Nc1ccc([N+](=O)[O-])cc1)c1nc2ccc([N+](=O)[O-])cc2nc1O (stereo not drawn)
inactive: [1] 76.6 µM | [2] 14.1 µM | [3] > 100 µM | [4] > 100 µM | [5] > 100 µM | [6] 65.6 µM | [7] > 100 µM | [8] > 100 µM | [9] > 100 µM | [10] > 100 µM | [11] > 100 µM | [12] > 100 µM | [13] > 100 µM | [14] > 100 µM | [15] > 100 µM | [16] > 100 µM

COC(=O)C(Cc1nc2ccccc2nc1C)/C(=N\NC(N)=O)C(=O)Nc1cccc([N+](=O)[O-])c1 (stereo not drawn)
inactive: [1] > 100 µM | [2] 10.8 µM | [3] 24.4 µM | [4] > 100 µM | [5] > 100 µM | [6] > 100 µM | [7] > 100 µM | [8] > 100 µM | [9] 64.9 µM | [10] > 100 µM | [12] > 100 µM | [13] 36.8 µM | [14] 74.3 µM | [15] > 100 µM | [16] 37.6 µM

Cc1ccc(N2C(=O)/C(=C3\Sc4c(nc(C)[nH]c4=O)N3c3ccccc3)SC2=S)cc1
inactive: [1] 19.7 µM | [2] 48.4 µM | [4] 22.2 µM | [5] 91.8 µM | [6] > 100 µM | [7] > 100 µM | [8] 16.1 µM | [9] 75.2 µM | [10] 60.3 µM | [11] 41.5 µM | [12] > 100 µM | [14] 10 µM | [15] 15.8 µM | [16] 17.3 µM

COC(=O)C1=CC2CC1C(S(=O)(=O)c1ccccc1)C2S(=O)(=O)c1ccccc1 (stereo not drawn)
inactive: [1] 11.3 µM | [3] 2.56 µM | [4] 21.6 µM | [6] 16.9 µM | [7] 14.7 µM | [9] 22.9 µM | [10] 14.8 µM | [11] 15.1 µM | [12] 14 µM | [15] 44.3 µM | [16] 17.3 µM

CCOC(=O)/C(=C/c1cccc(OC)c1)N(CC)CC
inactive: [1] > 100 µM | [2] > 100 µM | [3] > 100 µM | [4] > 10 µM | [5] > 100 µM | [6] > 100 µM | [7] > 100 µM | [9] > 100 µM | [10] > 100 µM | [11] > 100 µM | [14] > 100 µM | [15] > 100 µM | [16] > 100 µM

C=CCCCCCC(O)C(O)C/C=C\C/C=C\CC (stereo not drawn)
inactive: [1] > 18.8 µM | [2] > 18.8 µM | [3] > 9.66 µM | [4] 13.5 µM | [5] > 18.8 µM | [6] > 17.5 µM | [7] > 18.8 µM | [8] > 18.8 µM | [9] > 18.8 µM | [10] > 18.8 µM | [11] > 18.8 µM | [12] > 18.8 µM | [13] > 18.8 µM | [14] > 18.8 µM | [15] > 18.8 µM | [16] > 18.8 µM

NC(=O)CCC(Nc1c2ccccc2nc2ccccc12)C(=O)O (stereo not drawn)
inactive: [1] > 100 µM | [2] > 100 µM | [3] 55.2 µM | [4] 86.9 µM | [5] 71.3 µM | [7] > 100 µM | [8] > 100 µM | [9] > 100 µM | [10] 91 µM | [11] 41.1 µM | [12] > 100 µM | [13] > 100 µM | [14] > 100 µM | [16] > 100 µM

O=C1c2ccccc2N2OC3(N4CCCC4)CCCC3C12c1ccccc1 (stereo not drawn)
inactive: [1] > 100 µM | [2] > 100 µM | [3] 59.4 µM | [5] > 100 µM | [6] 61.4 µM | [8] > 100 µM | [9] > 100 µM | [10] 73.3 µM | [11] 34.8 µM | [12] > 100 µM | [13] > 100 µM | [14] > 100 µM | [15] > 100 µM | [16] > 100 µM

COc1cccc2c(SCC(=O)Nc3ccccc3-c3ccccc3NC(=O)CSc3c4ccccc4nc4c(OC)cccc34)c3ccccc3nc12
inactive: [1] 60.1 µM | [3] 76.9 µM | [4] > 100 µM | [5] 21.7 µM | [6] > 100 µM | [7] > 100 µM | [8] 17.5 µM | [9] 45.4 µM | [10] > 100 µM | [12] > 100 µM | [13] 57.9 µM | [14] 60.5 µM | [16] > 100 µM

CCCC(N)C(=O)c1ccccc1 (stereo not drawn)
inactive: [1] > 100 µM | [2] > 100 µM | [3] > 100 µM | [4] > 100 µM | [5] > 100 µM | [6] > 100 µM | [7] > 100 µM | [8] > 100 µM | [9] > 100 µM | [10] > 100 µM | [11] > 100 µM | [12] > 100 µM | [13] > 100 µM | [14] > 100 µM | [15] > 100 µM | [16] > 100 µM

COc1ccc2nc3cc(Cl)ccc3c(Sc3ccc([N+](=O)[O-])cc3C)c2c1
inactive: [1] > 100 µM | [2] > 100 µM | [3] > 100 µM | [4] > 100 µM | [5] > 100 µM | [6] > 100 µM | [7] > 100 µM | [8] > 100 µM | [9] > 100 µM | [10] > 100 µM | [11] > 100 µM | [12] 74.3 µM | [13] > 100 µM | [14] > 100 µM | [15] > 100 µM | [16] > 100 µM

CC(=O)O[C@H]1CC[C@@]2(C)C(=CC[C@@H]3C2CC[C@]2(C)C(=O)NC(=O)CC32)C1 (stereo partly drawn)
inactive: [1] > 100 µM | [2] 27.9 µM | [4] > 100 µM | [5] > 100 µM | [6] > 100 µM | [7] > 100 µM | [8] > 100 µM | [9] > 100 µM | [10] > 100 µM | [11] > 100 µM | [12] > 100 µM | [13] 35.5 µM | [14] > 100 µM | [15] > 100 µM | [16] 58.6 µM

C=C/C=C/NC(=O)OCc1ccccc1
inactive: [1] > 100 µM | [2] > 100 µM | [3] 98.9 µM | [4] > 100 µM | [5] > 100 µM | [6] > 100 µM | [7] > 100 µM | [8] > 100 µM | [9] > 100 µM | [10] > 100 µM | [11] > 100 µM | [12] > 100 µM | [13] > 100 µM | [15] > 100 µM | [16] > 100 µM

Nc1ccc(C(=O)O)c2[nH]c3ccccc3c(=O)c12
inactive: [1] > 100 µM | [2] > 100 µM | [3] > 100 µM | [4] > 100 µM | [6] > 100 µM | [7] > 100 µM | [8] 31.9 µM | [9] > 100 µM | [10] > 100 µM | [11] > 100 µM | [12] > 100 µM | [13] > 100 µM | [14] > 100 µM | [15] > 100 µM | [16] > 100 µM

CC1=C(C(=O)Nc2c(C)cccc2C)C(c2ccc3c(c2)OCO3)C(C(=O)Nc2c(C)cccc2C)=C(C)N1
inactive: [1] 18.1 µM | [2] 14.9 µM | [3] 22.5 µM | [4] 18.5 µM | [5] 21.5 µM | [7] 19.1 µM | [8] 17.8 µM | [9] 19.4 µM | [10] 14.3 µM | [12] 16.7 µM | [13] 16.5 µM | [14] 19.2 µM | [15] 77.3 µM | [16] 15.5 µM

CCCCCC(CN1CCOCC1)C(=O)/C=C/c1ccccc1 (stereo not drawn)
inactive: [1] 2 µM | [3] 1.95 µM | [4] 2.77 µM | [5] 10.4 µM | [6] 1.53 µM | [7] 2.63 µM | [8] 7.13 µM | [9] 1.94 µM | [10] 1.75 µM | [11] 2.19 µM | [12] 2.94 µM | [13] 1.82 µM | [14] 2.07 µM | [15] 2.71 µM | [16] 2.77 µM

O=S(O)CCCCSSCC(O)C(O)CSSCCCCS(=O)O (stereo not drawn)
inactive: [1] 12.9 µM and 9.08 µM | [4] 52.4 µM and 40.4 µM | [5] 26.9 µM and 33.4 µM | [7] > 100 µM and 74.8 µM | [8] 12 µM and 17.3 µM | [9] 17.5 µM and 12.2 µM | [11] 26.4 µM and 39.7 µM | [12] 40.5 µM and 34.9 µM | [13] 22.3 µM and 14.7 µM | [14] 17.6 µM and 23 µM | [15] > 100 µM | [16] 71.1 µM and 50.6 µM

CCN(CC)CCCCC1CCN(CC(=O)N2c3ccccc3NC(=O)c3ccccc32)CC1
inactive: [1] 19.4 µM | [2] > 100 µM | [3] > 100 µM | [5] > 100 µM | [6] > 100 µM | [8] > 100 µM | [9] > 100 µM | [10] > 100 µM | [11] > 100 µM | [12] > 100 µM | [14] > 100 µM | [15] > 100 µM

CC1CCCCc2nc3c(c(=O)n21)CCCC3 (stereo not drawn)
inactive: [1] > 100 µM | [2] > 100 µM | [4] > 100 µM | [7] > 100 µM | [8] > 100 µM | [9] > 100 µM | [10] > 100 µM | [11] > 100 µM | [12] > 100 µM | [14] > 100 µM | [15] > 100 µM | [16] > 100 µM
